Results on 5 compounds are retold here after patent US20170296550A1, “ARYL SULTAM DERIVATIVES AS RORc MODULATORS” (Genentech, Inc., priority 2013, published 2017).

Each structure is given as a SMILES string.

The assay deals with T1, RORc (Homo sapiens, UniProt P51449).
T1 construct: host or cells: E. coli
T1 sequence (P51449 269-508 limits assumed): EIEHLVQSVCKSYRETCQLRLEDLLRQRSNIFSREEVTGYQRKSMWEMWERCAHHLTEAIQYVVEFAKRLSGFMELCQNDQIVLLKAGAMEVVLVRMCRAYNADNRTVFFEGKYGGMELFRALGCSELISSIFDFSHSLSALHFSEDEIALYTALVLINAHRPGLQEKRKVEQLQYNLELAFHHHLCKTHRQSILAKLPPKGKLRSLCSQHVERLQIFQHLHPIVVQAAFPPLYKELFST
As to the kind of experiment: In Vitro RORc Ligand Binding Assay (25-[3H]hydroxycholesterol radioligand, filter plate). The note with it: RORc ligand binding domain 0.6 ug/mL; 6 nM 25-[3H]hydroxycholesterol; 3 h at 25° C. How it is done: Example 68 In Vitro RORc Ligand Binding Assay
This assay was used to determine a compound's potency in inhibiting activity of RORc by determining, Kiapp, IC50, or percent inhibition values.
On day of the assay, 100 uL of 0.05% CHAPS (in deionized H2O) was added to all wells of the GFB Unifilter plate and allowed soak for 1 h. A wash buffer of 50 mM HEPES (pH 7.4), 150 mM NaCl, and 5 mM MgCl2 was prepared to wash the filter plate. To prepare an assay buffer, BSA was added to the wash buffer to reach 0.01% and DTT was added to reach 1 mM.
For IC50 mode, 10 mM compound stocks were serially diluted in DMSO with DMSO to give 20× required final concentration in DMSO (15 uL compound+30 uL DMSO). The 20× compound stocks were diluted in DMSO with Assay Buffer 4-fold to reach 5× the final test concentration in 25% DMSO (10 uL compound+30 uL Assay Buffer). Solutions were mixed by aspiration several times with a pipette set on 50 uL volume. For the assay, 10 uL of 5× compound stock solutions in 25% DMSO were added to the assay plate in duplicate.
For two point screening, 10 mM stock compound solutions were diluted in DMSO to obtain 200 uM (20× the high test concentration) and then diluted 10-fold further to reach 20 uM (20× the low test concentration). The 20× stocks were diluted 4-fold with Assay Buffer (10 uL compound+30 uL Assay Buffer) to reach 5× the test concentrations (50 uM and 5 uM) and 10 uL were added to two assay plates for the duplicate wells. With each concentration tested on 2 plates, each set of 80 compounds used 4 assay plates (1 uM and 10 uM, with n=2).
25-hydroxycholesterol (1 uM) was used to determine the level of NSB signal is prepared in DMSO as for compounds above, then diluted in Assay Buffer to give a final concentration of 5 uM. For 25-hydroxycholesterol in 25% DMSO/75% Assay Buffer; 10 uL per well was used for NSB samples. Wells for Total Binding and No Receptor sample determination contained 10 uL of 25% DMSO/75% Assay Buffer per well.
Radioligand (25-[^3H]hydroxycholesterol) Preparation
25-[^3H]hydroxycholesterol was dilute in Assay Buffer to obtain 15 nM and vortex to mix. Add 20 uL to all wells to reach 6 nM final in the assay.
Stock receptor solution was diluted in assay buffer to obtain 1.5 ug/mL in Assay Buffer. 20 uL was added to all wells. For No R samples, 20 uL Assay Buffer was substituted for receptor solution.
Assay plates were 96-well polypropylene V-bottom plates. 10 uL of 5× compound in 25% DMSO/75% Assay Buffer was added to Test wells. 10 uL of 25% DMSO/75% Assay Buffer was added to Total Binding or No Receptor wells. 10 uL of 5 uM 25-hydroxycholesterol in 25% DMSO/75% Assay Buffer was added to NSB wells. 20 uL of 15 nM 25-[^3H]hydroxycholesterol prepared in Assay Buffer was added to all wells. 20 uL of 1.5 ug/mL RORc receptor was added to wells (or […] Assay Buffer to No R wells). Following addition to the wells, the plates were incubated 3 h at 25° C.
Using a Packard Filtermate Harvester, the filter plate were washed 4 times following transfer of the incubated samples. Plates were dry-filtered completely (2 h at 50° C. or overnight at room temperature). 50 uL Microscint 0 was added to all wells and read on Topcount protocol Inverted.
Final concentrations were as follows: 50 mM HEPES buffer (pH 7.4); 150 mM NaCl; 1 mM DTT; 5 mM MgCl2; 0.01% BSA; 5% DMSO; 0.6 ug/mL RORc receptor; 6 nM 25-[^3H]hydroxycholesterol. For NSB wells, 1 uM 25-hydroxycholesterol was also present.
`Cc1cc(COc2ccc(CN3[C@@H](C)CCC(c4ccccc4)S3(=O)=O)cc2)cc(C)n1` (stereo partly drawn) [Example 54, (3S)-2-[4-(2,6-Dimethyl-pyridin-4-ylmethoxy)-benzyl]-3-methyl-6-phenyl-[1,2]thiazinane 1,1-dioxide] displayed a 50% inhibitory concentration (IC50) of 295 nM.
For the compound `Cc1cc(COc2ccc(CN3[C@@H](C)CCC(c4ccccc4)S3(=O)=O)cc2)n(C)n1` (stereo partly drawn) [Example 55, (3S)-2-[4-(2,5-Dimethyl-2H-pyrazol-3-ylmethoxy)-benzyl]-3-methyl-6-phenyl-[1,2]thiazinane 1,1-dioxide], the IC50 is 387 nM.
`C[C@H]1CCC(c2ccccc2)S(=O)(=O)N1Cc1ccc(OCCn2ccnc2)cc1` (stereo partly drawn) [Example 56, (3S)-2-[4-(2-Imidazol-1-yl-ethoxy)-benzyl]-3-methyl-6-phenyl-[1,2]thiazinane 1,1-dioxide] returned an IC50 of 316 nM.
As for `CCS(=O)(=O)c1ccc(-c2ccc(CN3[C@@H](C)CCC(c4ccccc4)S3(=O)=O)c(F)c2)cc1` (stereo partly drawn) [Example 59, (3S)-2-(4′-Ethanesulfonyl-3-fluoro-biphenyl-4-ylmethyl)-3-methyl-6-phenyl-[1,2]thiazinane 1,1-dioxide], the figure is 69 nM.
In turn, `Cc1noc(C)c1COc1ccc(CN2[C@@H](C)CCC(c3ccccc3)S2(=O)=O)cc1` (stereo partly drawn) [Example 60, (3S)-2-[4-(3,5-Dimethyl-isoxazol-4-ylmethoxy)-benzyl]-3-methyl-6-phenyl-[1,2]thiazinane 1,1-dioxide] registered an IC50 of 151 nM.
